# In ChEMBL document CHEMBL5725355, “Methods for treating seizure disorders and pain” (2017):
# Key:
# [1] = (§1) Voltage-Clamp Assay: All experiments were conducted at room temperature (22-24° C.) with an EPC-10 amplifier and Pulse software (HEKA, Lambrecht/Pfalz, Germany) in the whole-cell mode of the patch-clamp technique. Human embryonic kidney (HEK)-293 cell lines stably expressing hNav1.1, hNav1.5, hNav1.7 channels (generously provided by Dr. Christopher Lossin, University of California Davis), hNav1.4 (Frank Lehmann-Horn, University of Ulm), or hKv2.1 channels (James Trimmer, University of California Davis) were bathed in extracellular solution containing (in mM): 160 NaCl; 4.5 KCl; 1 MgCl2; 2 CaCl2; 10 HEPES [pH was adjusted to 7.4 using NaOH (310 mOsm)]. Pipettes were filled with intracellular solution containing (in mM): 145 KF; 2 MgCl2; 10 ethylene glycol tetraacetic acid; 10 HEPES (pH adjusted to 7.2 with KOH; 300 mOsm). Neuroblastoma N1E-115 cells (ATCC, Manassa, Va., USA) expressing Nav1.2 were patched with a CsF internal solution consisting of (in mM): 10 NaF; 110 CsF; 20 CsCl; 2 ethylene glycol tetraacetic acid; 10 HEPES (CsOH to pH 7.35; 300 mOsm). All pipette tip resistances were 2-4 MΩ. Series resistances of 3-10 MΩ were compensated 40-80%. All cells were voltage-clamped to a holding potential of −90 mV unless otherwise specified. The sampling frequency was 5 kHz. Na+ currents were elicited by 30-ms pulse to 0 mV from −90 mV applied every 10 s. […]
# [2] = as §1; remark: listed apart in the source
# [3] = as §1; remark: listed apart in the source
# [4] = as §1; remark: listed apart in the source
# [5] = as §1; remark: listed apart in the source
# [6] = as §1; remark: listed apart in the source
smiles,measurement,setting,value
Nc1nc2ccc(SC(F)(F)F)cc2s1,EC50,[1],6.9 µM
same,EC50,[2],7.9 µM
same,EC50,[3],2.2 µM
same,EC50,[4],4.5 µM
same,EC50,[5],5.8 µM
same,EC50,[6],22.3 µM
